Experimental data published in patent US20220073536A1 (Rigel Pharmaceuticals, Inc., priority 2003, published 2022).

Test system: cultured human mast cells (CHMC)
Assay: CHMC low cell density IgE activation: tryptase assay
Assay type: cell-based
Conditions: Homo sapiens, Mast cell, low cell density CHMC, IgE activation, tryptase readout, 3 pt; read-out: LD Tryptase, CHMC, IgE, 3 pt
In short: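 CHMC were seeded at 1000–1500 cells/well in MT buffer and incubated 1 hr at 37 °C. They were then stimulated with anti-IgE for 30 min at 37 °C, with unstimulated wells as controls. Released tryptase in the supernatant was measured with a fluorogenic substrate after 30 min at room temperature.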

IC50 [µM]	SMILES
< 10	COc1cccc(Nc2ncc(F)c(Nc3ccc4c(c3)NC(=O)C(C)(C)O4)n2)c1C [Compound 1062, N4-(2,2-Dimethyl-3-oxo-4H-benz[1,4]oxazin-6-yl)-5-fluoro-N2-(3-methoxy-2-methylphenyl)-2,4-pyrimidinediamine]

Same assay, conditions: Homo sapiens, Mast cell, low cell density CHMC, IgE activation, tryptase readout, 8 pt; read-out: LD Tryptase, CHMC, IgE, 8 pt

IC50 [µM]	SMILES
< 10	Cc1c(O)cccc1Nc1ncc(F)c(Nc2ccc3c(c2)NC(=O)C(C)(C)O3)n1 [Compound 1060, N4-(2,2-Dimethyl-3-oxo-4H-benz[1,4]oxazin-6-yl)-5-fluoro-N2-(3-hydroxy-2-methylphenyl)-2,4-pyrimidinediamine]

Same assay, conditions: low cell density CHMC, IgE activation, tryptase readout, 3 pt; read-out: LD Tryptase, CHMC, IgE, 3 pt

IC50 [µM]	SMILES
< 10	COc1cccc(Nc2ncc(F)c(Nc3ccc4c(n3)NC(=O)C(C)(C)O4)n2)c1C [Compound 1065, N4-(2,2-Dimethyl-3-oxo-4H-5-pyrid[1,4]oxazin-6-yl)-5-fluoro-N2-(3-methoxy-2-methylphenyl)-2,4-pyrimidinediamine]
< 10	COC(=O)COc1cccc(Nc2ncc(F)c(Nc3ccc4c(c3)NC(=O)C(C)(C)O4)n2)c1C [Compound 1066, N4-(2,2-Dimethyl-3-oxo-4H-benz[1,4]oxazin-6-yl)-5-fluoro-N2-[3-methoxycarbonylmethyleneoxy-2-methylphenyl]-2,4-pyrimidinediamine]

Same assay, conditions: low cell density CHMC, IgE activation, tryptase readout, 8 pt; read-out: LD Tryptase, CHMC, IgE, 8 pt

IC50 [µM]	SMILES
> 10	CC1(C)Oc2ccc(Nc3nc(Nc4ccc(-c5ncco5)cc4)ncc3F)nc2NC1=O [Compound 1035, N4-(2,2-Dimethyl-3-oxo-4H-5-pyrid[1,4]oxazin-6-yl)-5-fluoro-N2-[4-(oxazol-2-yl)phenyl]-2,4-pyrimidinediamine]
< 10	COc1c(C)cc(Nc2ncc(F)c(Nc3ccc4c(n3)NC(=O)CO4)n2)cc1C [Compound 1059, N2-(3,5-Dimethyl-4-methoxyphenyl)-5-fluoro-N4-(3-oxo-2H,4H-5-pyrid[1,4]oxazin-6-yl)-2,4-pyrimidinediamine]
< 10	COc1cccc(Nc2ncc(F)c(Nc3ccc4c(n3)NC(=O)CO4)n2)c1C [Compound 1061, 5-Fluoro-N2-(3-methoxy-2-methylphenyl)-N4-(3-oxo-2H,4H-5-pyrid[1,4]oxazin-6-yl)-2,4-pyrimidinediamine]
< 10	Cc1c(O)cccc1Nc1ncc(F)c(Nc2ccc3c(n2)NC(=O)CO3)n1 [Compound 1063, 5-Fluoro-N2-(3-hydroxy-2-methylphenyl)-N4-(3-oxo-2H,4H-5-pyrid[1,4]oxazin-6-yl)-2,4-pyrimidinediamine]
< 10	Cc1c(O)cccc1Nc1ncc(F)c(Nc2ccc3c(n2)NC(=O)C(C)(C)O3)n1 [Compound 1064, N4-(2,2-Dimethyl-3-oxo-4H-5-pyrid[1,4]oxazin-6-yl)-5-fluoro-N2-(3-hydroxy-2-methylphenyl)-2,4-pyrimidinediamine]
< 10	CNC(=O)COc1cccc(Nc2ncc(F)c(Nc3ccc4c(c3)NC(=O)C(C)(C)O4)n2)c1C [Compound 1067, N4-(2,2-Dimethyl-3-oxo-4H-benz[1,4]oxazin-6-yl)-5-fluoro-N2-[2-methyl-3-(N-methylamino)carbonylmethyleneoxyphenyl]-2,4-pyrimidinediamine]
< 10	CNC(=O)COc1cccc(Nc2ncc(F)c(Nc3ccc4c(n3)NC(=O)CO4)n2)c1C [Compound 1068, 5-Fluoro-N2-[2-methyl-3-(N-methylamino)carbonylmethyleneoxyphenyl]-N4-(3-oxo-2H,4H-5-pyrid[1,4]oxazin-6-yl)-2,4-pyrimidinediamine]
< 10	Cc1cc(Nc2ncc(F)c(Nc3ccc4c(n3)NC(=O)CO4)n2)cc(C)c1O [Compound 1069, N2-(3,5-Dimethyl-4-hydroxyphenyl)-5-fluoro-N4-(3-oxo-2H,4H-5-pyrid[1,4]oxazin-6-yl)-2,4-pyrimidinediamine]
< 10	CCOC(=O)N1CCN(c2cccc(Nc3ncc(F)c(Nc4ccc5c(n4)NC(=O)CO5)n3)c2)CC1 [Compound 1070, N2-[3-(4-Ethoxycarbonylpiperazino)phenyl]-5-fluoro-N4-(3-oxo-2H,4H-5-pyrid[1,4]oxazin-6-yl)-2,4-pyrimidinediamine]
< 10	CC(=O)N1CCN(c2cccc(Nc3ncc(F)c(Nc4ccc5c(n4)NC(=O)CO5)n3)c2)CC1 [Compound 1071, N2-[3-(4-Acetylpiperazino)phenyl]-5-fluoro-N4-(3-oxo-2H,4H-5-pyrid[1,4]oxazin-6-yl)-2,4-pyrimidinediamine]
< 10	CCOC(=O)N1CCN(c2ccc(Nc3ncc(F)c(Nc4ccc5c(n4)NC(=O)CO5)n3)cc2)CC1 [Compound 1072, N2-[4-(4-Ethoxycarbonylpiperazino)phenyl]-5-fluoro-N4-(3-oxo-2H,4H-5-pyrid[1,4]oxazin-6-yl)-2,4-pyrimidinediamine]
< 10	O=C1COc2ccc(Nc3nc(Nc4cccc(N5CCOCC5)c4)ncc3F)nc2N1 [Compound 1073, 5-Fluoro-N2-(3-morpholinophenyl)-N4-(3-oxo-2H,4H-5-pyrid[1,4]oxazin-6-yl)-2,4-pyrimidinediamine]
< 10	CN1CCN(c2cccc(Nc3ncc(F)c(Nc4ccc5c(n4)NC(=O)CO5)n3)c2)CC1 [Compound 1074, 5-Fluoro-N2-[3-(4-methylpiperazino)phenyl]-N4-(3-oxo-2H,4H-5-pyrid[1,4]oxazin-6-yl)-2,4-pyrimidinediamine]
< 10	CCOC(=O)N1CCN(c2cccc(Nc3ncc(F)c(Nc4ccc5c(n4)NC(=O)C(C)(C)O5)n3)c2)CC1 [Compound 1075, N4-(2,2-Dimethyl-3-oxo-4H-5-pyrid[1,4]oxazin-6-yl)-N2-[3-(4-ethoxycarbonylpiperazino)phenyl]-5-fluoro-2,4-pyrimidinediamine]
< 10	CC(=O)N1CCN(c2cccc(Nc3ncc(F)c(Nc4ccc5c(n4)NC(=O)C(C)(C)O5)n3)c2)CC1 [Compound 1076, N2-[3-(4-Acetylpiperazino)phenyl]-N4-(2,2-dimethyl-3-oxo-4H-5-pyrid[1,4]oxazin-6-yl)-5-fluoro-2,4-pyrimidinediamine]
< 10	CCOC(=O)N1CCN(c2ccc(Nc3ncc(F)c(Nc4ccc5c(n4)NC(=O)C(C)(C)O5)n3)cc2)CC1 [Compound 1077, N4-(2,2-Dimethyl-3-oxo-4H-5-pyrid [1,4]oxazin-6-yl)-N2-[4-(4-ethoxycarbonylpiperazino)phenyl]-5-fluoro-2,4-pyrimidinediamine]

Same assay, conditions: low cell density, IgE activation, 3 pt; read-out: LD Tryptase, CHMC, IgE, 3 pt

IC50 [µM]	SMILES
< 10	CC(C)c1cccc(Nc2ncc(F)c(Nc3ccc4c(n3)NC(=O)C(C)(C)O4)n2)c1 [Compound 1003, N4-(2,2-Dimethyl-3-oxo-4H-5-pyrid[1,4]oxazin-6-yl)-5-fluoro-N2-(3-isopropylphenyl)-2,4-pyrimidinediamine]

Same assay, conditions: low cell density, IgE activation, 8 pt; read-out: LD Tryptase, CHMC, IgE, 8 pt

IC50 [µM]	SMILES
< 10	CNC(=O)COc1cccc(Nc2ncc(F)c(Nc3ccc4c(c3)NCC(C)(C)O4)n2)c1 [Compound 1000, N4-(3,4-Dihydro-2,2-dimethyl-4H-benz[1,4]oxazin-6-yl)-5-fluoro-N2-[3-(N-methylamino)carbonylmethyleneoxyphenyl]-2,4-pyrimidinediamine]
< 10	COc1c(C)cc(Nc2ncc(F)c(Nc3ccc4c(c3)NCC(C)(C)O4)n2)cc1Cl [Compound 1001, N2-(3-Chloro-4-methoxy-5-methylphenyl)-N4-(3,4-dihydro-2,2-dimethyl-4H-benz[1,4]oxazin-6-yl)-5-fluoro-2,4-pyrimidinediamine]
< 10	COc1cc(Nc2ncc(F)c(Nc3ccc4c(c3)NCC(C)(C)O4)n2)cc(OC)c1 [Compound 1002, N4-(3,4-Dihydro-2,2-dimethyl-4H-benz[1,4]oxazin-6-yl)-N2-(3,5-dimethoxyphenyl)-5-fluoro-2,4-pyrimidinediamine]
< 10	CC(C)c1cccc(Nc2ncc(F)c(Nc3ccc4c(n3)NC(=O)C(C)(C)O4)n2)c1 [Compound 1003, N4-(2,2-Dimethyl-3-oxo-4H-5-pyrid[1,4]oxazin-6-yl)-5-fluoro-N2-(3-isopropylphenyl)-2,4-pyrimidinediamine]
